Experimental findings from patent US20220016127A1, “COMPOSITIONS AND METHODS FOR INDUCING APPENDAGE AND LIMB REGENERATION” (priority 2020, published 2022) are described below.

Values joined by “and” are separate entries in the source; they are usually repeats but may differ in a detail not shown here. Equal entries are not always repeated.

In assay [1] the test system is Aurelia ephyra. As to the kind of experiment: Arm regeneration induction in amputated Aurelia ephyrae. In kind it is in vivo, Aurelia aurita. To be noted: for effect on arm regeneration / regeneration frequency (in words): amputated ephyrae, factor added to artificial seawater upon amputation; for Percent regeneration, Average: average over experiments; for Effect size, Length of arm regenerates: Response Ratio treated vs control (Table 7); for Average effect size: Risk Ratio of regeneration frequency, across experiments (Table 4); for Average effect size / Odds Ratio: treated vs control; for Effect size, % ephyrae regenerating / Effect size, % ephyrae regenerating >1 arm / Effect size, % ephyrae regenerating rhopalia: Risk Ratio treated vs control (Table 7); for Odds Ratio: odds of regeneration, across experiments (Table 6). Here is the method:
Amputation. Strobilated ephyrae were fed daily with rotifers (Brachionus plicatilis) until amputation time. 2-3 days old ephyrae were anesthetized in 400 μM menthol and amputated using a razor blade mounted on an x-acto knife handle. After amputation, ephyrae were let to recover in bubbler cones (FIG. 7). Regeneration was assessed at various times until 1-2 weeks after amputation, before onset of maturation to medusa.
Inducing regeneration. Experimental setup. 0.5-1 L sand settling cones were repurposed as jellyfish aquaria (Nalgene Imhoff; FIG. 7). Each cone was equipped with an airline from a Tetra Whisper air pump 100 to create a gentle vertical current (˜1 bubble/sec, see FIG. 30). The conical geometry eliminates stagnant spots, where the ephyrae could get stuck. In this “bubbler cone” setup, the ephyrae were continually in water current either in the upward air bubble-generated current or the downward self-generated current. 500 mL artificial seawater and 30 ephyrae were placed in each cone to avoid crowding and fouling. Artificial seawater was changed every week. Nutrients. In some embodiments, the food amount given here only serves as an initial estimate; percentage of regeneration can easily vary with lab culture condition (e.g., polyp and rotifer size, age, health), as well as subject to variation across polyps and strobilation batches (see Table 2A-Table 2C for a sense of the variation). Amputated ephyrae were fed daily with rotifers. The number of rotifers administered daily was estimated using a 6-well plate fitted with STEMgrid™ (the same principle as using a hemocytometer). In some embodiments, low food is ˜100-200 rotifers/ephyra, whereas high food is ˜400 rotifers/ephyra. Insulin. Human recombinant insulin was administered to the amputated ephyrae at 500 nM immediately after amputation (by mixing in the artificial seawater). If the experiment proceeds longer than a week, fresh insulin was added at the one-week time point. Hypoxia. Nitrogen or argon flow, instead of ambient air flow, was introduced via the airline into the bubbler cone immediately after amputation, and maintained throughout the duration of the experiment. The nitrogen flow was adjusted to achieve 50% reduction in the dissolved oxygen level.
Inhibiting or activating mTOR. 1 nM Sapanisertib (Selleck Chemicals S2811), 1 μM A769662 (Santa Cruz sc-203790), or 100 μM L-leucine (Sigma L1002, the cell-permeable methyl ester hydrochloride form) was administered into the artificial seawater right after amputation, and refreshed weekly. Statistical analysis. Percent regeneration was first normalized to the control (for sapanisertib and A769662, the HF+DMSO control; for leucine data the LF control), and then the student's t-test (two tailed, equal variances) in Excel was used to test the null hypothesis that the fold change in % regeneration is zero. Drosophila melanogaster
Amputation. Strobilated ephyrae were fed daily with rotifers (Brachionus plicatilis, Reed Mariculture) until amputation time. 2-3 days old ephyrae were anesthetized in 400 μM menthol and amputated using a razor blade mounted on an x-acto knife handle. After amputation, ephyrae were let to recover in bubbler cones (FIG. 21). Regeneration was assessed at various times for 1-2 weeks after amputation, before onset of maturation to medusa. Experiment in the original habitat. The polyp population in the study arose from parental polyps collected off the coast of Long Beach, Calif. (33° 46′04.2″N 118° 07′44.2″W, GPS: 33.7678376,−118.1289559). Ephyrae were amputated in location and immediately after submersed in the ocean. For submerging the amputated ephyrae in the ocean, a two-layered aquarium was custom-built. Ephyrae were placed in plastic canisters with a 7 cm diameter hole cut in the lid and covered with a 250 μm plastic screen. The canisters were then placed in a thick plastic tank fitted with a 500 μm plastic screen on top. […]

In assay [2] the test system is Aurelia ephyra. As to the kind of experiment: Body size (growth) of amputated Aurelia ephyrae. In kind it is in vivo, Aurelia aurita. The following applies: Response Ratio across experiments (Table 8). Here is the method: Two-to-three-day-old ephyrae were anesthetized in 400 μM menthol and amputated using a razor blade mounted on an x-acto knife handle. Amputated ephyrae were let to recover in 1 L sand settling cones (Nalgene Imhoff, FIG. 21). In each experiment, ˜90 animals were amputated for each condition (e.g., 90 animals for control and 90 animals for treated). Because of the varying baseline across strobilation batches, each experiment was repeated across 2-5 strobilation batches (biological replicates). These sample sizes were chosen to obtain a 95% confidence level on the treatment effect (statistical analysis described below). Hundreds of experimental animals were first amputated, mixed together in a beaker, and then randomly allocated to the control or treatment groups. Regeneration was assessed at various times for 1-2 weeks after amputation, before onset of maturation to medusa. All data were included in the analysis.
For measurements of arm length and body size, the datasets are in the form of continuous variables. For such data, the commonly used effect size is the Response Ratio (R, EQUATION 3),
R evaluates the proportionate change that results from a treatment, and is the meaningful effect size to use when the outcome of a treatment is measured on a physical scale, e.g., length or area (as opposed to arbitrary scale, e.g., happiness level). […]

A further assay relates to Drosophila limb. Nature of the assay: Tibia (hindlimb) regeneration in amputated adult Drosophila. In kind it is in vivo, Drosophila melanogaster. To be noted: adult flies, fed in food.
Assay [3] has as its system Aurelia ephyra. Nature of the assay: Arm regeneration induction in amputated Aurelia ephyrae. In kind it is in vivo, Aurelia aurita. To be noted: low food (LF) background; single experiments; arm regeneration 1-2 weeks after amputation; insulin 500 nM, L-leucine 100 μM / 100 mM, nitrogen flow ~50% reduction in oxygen.
The mark [4] stands for this setting: high food (HF) background, single experiments, insulin 500 nM, 1 nM sapanisertib, 1 μM A769662 (controls HF + DMSO), nitrogen or argon flow ~50% reduction in oxygen.

Method for Drosophila limb: Amputation. Adult flies 2-7 days after eclosion were anesthetized with CO2. Amputations were performed under a dissection microscope using a spring scissors (Fine Science Tools, 91500-09) and superfine dissecting forceps (VWR, 82027-402). Recovering Drosophila were fed with standard fly food (control) or standard fly food supplemented with 2 mM L-leucine (Sigma L8000), 2 mM L-Glutamine (Sigma G3126), and 0.1 mg/mL insulin (MP Biomedicals 0219390080) or other molecular factors. To introduce molecular factors into fly food, standard fly food was microwaved in short pulses, such that the topmost layer of the food was liquified. Molecular factors in aqueous medium were then pipetted into this liquified layer. Food was allowed to re-set at 4° C. for at least 20 minutes. New food was prepared fresh every 2 days throughout the course of the 2-week experiment. Regeneration was assessed at 3, 6, 9 and 14 days post amputation.
Drosophila were amputated on the hindlimb, across the fourth segment of the leg, the tibia (FIG. 16A-FIG. 16C). The amputation removed the distal half to third of the tibia and all tarsal segments. […] Regeneration was assessed between 7-21 dpa as the presence of a regrown tibia with a reformed distal joint (FIG. 16E). […]

On to `N#Cc1c(O)c2c(-c3ccc(-c4ccccc4O)cc3)csc2[nH]c1=O` [A769662, reference compound], for which the “effect on arm regeneration / regeneration frequency (in words)” value in the assay on Aurelia ephyra [1] is recorded as “inhibited arm regeneration”. Further, the “Percent regeneration, Average” value in the assay on Aurelia ephyra [1] (high food (HF) background) came to 8.3%. Also, the Percent regeneration with Aurelia ephyra [1] (setting [4]) is 9.8% and 7.0%.
As for `CC(C)C[C@H](N)C(=O)O` [Leucine, L-leucine], in the assay on Aurelia ephyra [2], the “Ave. body diameter treatment/control” value was 1.1. Besides, the “effect on tibia regrowth (in words)” value with Drosophila limb was “can by itself effect tibia regrowth”. Moreover, in the assay on Aurelia ephyra [1], the “Effect size, Length of arm regenerates” value was found to be 1.7; the Average effect size amounted to 4.1; the “Effect size, % ephyrae regenerating” value is 4.1; the “Effect size, % ephyrae regenerating >1 arm” value turned out to be 6.0. Further, in the assay on Aurelia ephyra [1], the “Effect size, % ephyrae regenerating rhopalia” value was 6.1; the “effect on arm regeneration / regeneration frequency (in words)” value is listed as “induced arm regeneration”; the “Odds Ratio” value stood at 5.8. Also, the “Percent regeneration, Average” value in the assay on Aurelia ephyra [1] (low food (LF) background) amounted to 23.0%.
With `CC(C)n1nc(-c2ccc3oc(N)nc3c2)c2c(N)ncnc21` [Sap, Sapanisertib, reference compound], in the assay on Aurelia ephyra [1] (high food (HF) background), the “Percent regeneration, Average” value was found to be 11.5%.
Take `[Ar]` [argon]: in the assay on Aurelia ephyra [1], the “effect on arm regeneration / regeneration frequency (in words)” value is recorded as “dramatically induced regeneration”. Besides, the Percent regeneration with Aurelia ephyra [1] (setting [4]) is listed as 72.5%.
Regarding `N#N` [nitrogen], the Percent regeneration in the assay with Aurelia ephyra [3] was 32.5%; in the assay on Aurelia ephyra [1] (LF* background, single experiment, nitrogen flow), 28.4%; in the assay with Aurelia ephyra [1] (setting [4]), 82.1% and 56.9%. Besides, the “Percent regeneration, Average” value was determined as 69.3% with Aurelia ephyra [1] (high food (HF) background) and 30.6% with Aurelia ephyra [1] (low food (LF) background).
Take “Insulin: human recombinant insulin (Sigma I0908), 500 nM in artificial seawater”: in the assay on Aurelia ephyra [2], the “Ave. body diameter treatment/control” value is 1.4. The molecule further displayed a Percent regeneration in the assay with Aurelia ephyra [3] of 25%. In the assay on Aurelia ephyra [1], the “Effect size, Length of arm regenerates” value was 1.2; the Average effect size is 2.4; the “Effect size, % ephyrae regenerating” value is 2.4; the “Effect size, % ephyrae regenerating >1 arm” value worked out at 1.9. In the assay on Aurelia ephyra [1], the “Effect size, % ephyrae regenerating rhopalia” value is 1.3 and the “Odds Ratio” value is recorded as 5.0. Also, the Percent regeneration with Aurelia ephyra [1] (setting [4]) turned out to be 36.4%.
For “Tgfb: protein tested in the screen (hTGF-β1, Peprotech 100-21)”, the “effect on arm regeneration / regeneration frequency (in words)” value in the assay on Aurelia ephyra [1] is recorded as “no effect”.
